Measurements from patent US10160747B2, “Compounds and methods for kinase modulation, and indications therefor” (Plexxikon Inc., priority 2016, dated 2018).

Molecular target: CSF1R (Homo sapiens, UniProt P07333)
Assay: CSF1R 100 ATP 8 pt kinase assay (Table 6)
Type: biochemical
Conditions: not given
Excerpt: The following Table 6 provides data indicating FLT3 ITD, D835Y and F691L; c-KIT and CSF1R biochemical and/or cell inhibitory activity for exemplary compounds as described herein.

Chain of CSF1R (P07333 20-972, species assumed): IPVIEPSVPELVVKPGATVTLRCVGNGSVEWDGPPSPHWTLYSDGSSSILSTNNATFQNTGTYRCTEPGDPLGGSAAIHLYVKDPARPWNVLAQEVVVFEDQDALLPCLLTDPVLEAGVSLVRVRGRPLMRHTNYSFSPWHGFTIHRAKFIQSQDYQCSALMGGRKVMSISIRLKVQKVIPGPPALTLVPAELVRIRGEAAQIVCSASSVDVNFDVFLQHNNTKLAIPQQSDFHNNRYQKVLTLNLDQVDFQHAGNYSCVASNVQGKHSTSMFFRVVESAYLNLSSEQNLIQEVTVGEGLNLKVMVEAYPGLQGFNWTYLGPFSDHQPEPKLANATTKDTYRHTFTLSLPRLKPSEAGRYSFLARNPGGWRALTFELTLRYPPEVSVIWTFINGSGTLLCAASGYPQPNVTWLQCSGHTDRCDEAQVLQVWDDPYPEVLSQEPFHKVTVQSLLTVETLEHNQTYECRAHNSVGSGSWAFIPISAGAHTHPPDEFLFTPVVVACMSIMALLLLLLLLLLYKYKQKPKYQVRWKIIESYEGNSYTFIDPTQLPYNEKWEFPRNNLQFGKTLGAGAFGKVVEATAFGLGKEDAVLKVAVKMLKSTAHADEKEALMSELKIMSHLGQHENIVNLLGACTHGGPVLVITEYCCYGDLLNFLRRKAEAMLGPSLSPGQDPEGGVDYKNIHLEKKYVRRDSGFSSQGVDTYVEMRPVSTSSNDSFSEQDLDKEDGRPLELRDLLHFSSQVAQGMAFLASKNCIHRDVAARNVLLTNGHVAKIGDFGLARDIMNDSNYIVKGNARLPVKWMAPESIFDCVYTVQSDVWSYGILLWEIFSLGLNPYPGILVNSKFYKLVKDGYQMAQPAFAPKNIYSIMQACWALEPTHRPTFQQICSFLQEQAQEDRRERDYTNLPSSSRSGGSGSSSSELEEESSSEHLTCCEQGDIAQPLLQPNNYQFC

Row | SMILES | IC50 [µM]
1 | COc1ncc(NC(=O)Cc2ccc(-c3cnc4[nH]nc(OC)c4c3)cc2)cc1C(F)(F)F [Compound P-0212, 2-[4-(3-methoxy-1H-pyrazolo[3,4-b]pyridin-5-yl)phenyl]-N-[6-methoxy-5-(trifluoromethyl)-3-pyridyl]acetamide] | 0.0001 to 10

Molecular target: T1, BA/F3-FLT3-ITD + D835Y (Homo sapiens, UniProt P36888, D835Y, cells depend on it, form not given)
T1 sequence (P36888 with tags, fused parts or gaps INS600HVDFREYEYD/D835Y): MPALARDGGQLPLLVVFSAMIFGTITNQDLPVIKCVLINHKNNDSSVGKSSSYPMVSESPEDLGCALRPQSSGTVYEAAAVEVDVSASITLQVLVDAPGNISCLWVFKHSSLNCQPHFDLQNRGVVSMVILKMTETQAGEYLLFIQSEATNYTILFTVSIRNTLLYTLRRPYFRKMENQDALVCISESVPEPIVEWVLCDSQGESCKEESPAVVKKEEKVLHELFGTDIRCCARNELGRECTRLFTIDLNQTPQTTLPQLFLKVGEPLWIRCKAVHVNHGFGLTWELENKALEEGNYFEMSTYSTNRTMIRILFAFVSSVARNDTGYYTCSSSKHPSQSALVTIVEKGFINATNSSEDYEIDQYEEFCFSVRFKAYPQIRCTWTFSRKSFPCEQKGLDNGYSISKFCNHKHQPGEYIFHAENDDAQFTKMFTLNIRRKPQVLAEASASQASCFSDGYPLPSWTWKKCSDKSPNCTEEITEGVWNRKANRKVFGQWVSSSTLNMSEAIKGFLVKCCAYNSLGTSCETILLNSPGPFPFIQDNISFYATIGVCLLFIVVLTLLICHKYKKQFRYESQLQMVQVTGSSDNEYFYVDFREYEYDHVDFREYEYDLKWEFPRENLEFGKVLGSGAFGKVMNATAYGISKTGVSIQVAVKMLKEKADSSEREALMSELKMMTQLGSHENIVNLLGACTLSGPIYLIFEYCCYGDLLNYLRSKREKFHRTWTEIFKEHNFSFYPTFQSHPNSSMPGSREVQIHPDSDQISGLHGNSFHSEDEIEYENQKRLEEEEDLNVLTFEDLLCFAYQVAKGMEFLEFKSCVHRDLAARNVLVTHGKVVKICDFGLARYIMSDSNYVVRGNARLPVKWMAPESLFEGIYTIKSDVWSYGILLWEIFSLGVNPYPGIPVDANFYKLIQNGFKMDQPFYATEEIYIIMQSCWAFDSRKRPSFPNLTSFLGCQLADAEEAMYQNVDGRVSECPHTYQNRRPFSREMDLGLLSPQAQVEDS
Assay: Engineered BA/F3 cell growth assay, FLT3 ITD/D835Y
Type: cell-based, murine
Conditions: 3 d growth
Method in brief: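 Murine Ba/F3 cells transfected with full-length FLT3 ITD/D835Y, grown without IL-3 so growth depends on FLT3. Seeded at 1×10^4 cells/well, 8-point 1:3 series to 1 μM top (0.2% DMSO), 3 days at 37 °C. CellTiter-Glo luminescence (ATP) versus concentration gave IC50.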

Row | SMILES | GI50 [µM]
2 | COc1ncc(NC(=O)Cc2ccc(-c3cnc4[nH]nc(OC)c4c3)cc2)cc1C(F)(F)F [Compound P-0212, 2-[4-(3-methoxy-1H-pyrazolo[3,4-b]pyridin-5-yl)phenyl]-N-[6-methoxy-5-(trifluoromethyl)-3-pyridyl]acetamide] | 0.0001 to 10
3 | CCn1cc(Nc2ncc(-c3cc(F)c(CC(=O)Nc4cnc(C)c(C(F)(F)F)c4)cc3F)cn2)cn1 [Compound P-0249, 2-[4-[2-[(1-ethylpyrazol-4-yl)amino]pyrimidin-5-yl]-2,5-difluoro-phenyl]-N-[6-methyl-5-(trifluoromethyl)-3-pyridyl]acetamide] | 0.0001 to 10
4 | CCn1cc(Nc2ncc(-c3ccc(CC(=O)Nc4cc(C(F)(F)F)ccn4)cc3)cn2)cn1 [Compound P-0250, 2-[4-[2-[(1-ethylpyrazol-4-yl)amino]pyrimidin-5-yl]phenyl]-N-[4-(trifluoromethyl)-2-pyridyl]acetamide] | 0.0001 to 10
5 | CCn1cc(Nc2ncc(-c3ccc(CC(=O)Nc4ccc(C(F)(F)F)cn4)cc3)cn2)cn1 [Compound P-0251, 2-[4-[2-[(1-ethylpyrazol-4-yl)amino]pyrimidin-5-yl]phenyl]-N-[5-(trifluoromethyl)-2-pyridyl]acetamide] | 0.0001 to 10
6 | CCn1cc(Nc2ncc(-c3ccc(CC(=O)Nc4ccc(C(F)(F)F)nc4)cc3)cn2)cn1 [Compound P-0252, 2-[4-[2-[(1-ethylpyrazol-4-yl)amino]pyrimidin-5-yl]phenyl]-N-[6-(trifluoromethyl)-3-pyridyl]acetamide] | 0.0001 to 10
7 | CCn1cc(Nc2ncc(-c3ccc(CC(=O)Nc4cnc(OC)c(C(F)(F)F)c4)cc3)cn2)cn1 [Compound P-0253, 2-[4-[2-[(1-ethylpyrazol-4-yl)amino]pyrimidin-5-yl]phenyl]-N-[6-methoxy-5-(trifluoromethyl)-3-pyridyl]acetamide] | 0.0001 to 10
8 | CCn1cc(Nc2ncc(-c3ccc(CC(=O)Nc4cnc(C)c(C(F)(F)F)c4)cc3)cn2)cn1 [Compound P-0254, 2-[4-[2-[(1-ethylpyrazol-4-yl)amino]pyrimidin-5-yl]phenyl]-N-[6-methyl-5-(trifluoromethyl)-3-pyridyl]acetamide] | 0.0001 to 10
9 | CCn1cc(Nc2ncc(-c3ccc(CC(=O)Nc4cc(C(F)(F)F)ccn4)c(F)c3)cn2)cn1 [Compound P-0255, 2-[4-[2-[(1-ethylpyrazol-4-yl)amino]pyrimidin-5-yl]-2-fluoro-phenyl]-N-[4-(trifluoromethyl)-2-pyridyl]acetamide] | 0.0001 to 10
10 | CCn1cc(Nc2ncc(-c3ccc(CC(=O)Nc4ccc(C(F)(F)F)cn4)c(F)c3)cn2)cn1 [Compound P-0256, 2-[4-[2-[(1-ethylpyrazol-4-yl)amino]pyrimidin-5-yl]-2-fluoro-phenyl]-N-[5-(trifluoromethyl)-2-pyridyl]acetamide] | 0.0001 to 10
11 | CCn1cc(Nc2ncc(-c3ccc(CC(=O)Nc4ccc(C(F)(F)F)nc4)c(F)c3)cn2)cn1 [Compound P-0257, 2-[4-[2-[(1-ethylpyrazol-4-yl)amino]pyrimidin-5-yl]-2-fluoro-phenyl]-N-[6-(trifluoromethyl)-3-pyridyl]acetamide] | 0.0001 to 10
12 | CCn1cc(Nc2ncc(-c3ccc(CC(=O)Nc4cncc(C(F)(F)F)c4)c(F)c3)cn2)cn1 [Compound P-0258, 2-[4-[2-[(1-ethylpyrazol-4-yl)amino]pyrimidin-5-yl]-2-fluoro-phenyl]-N-[5-(trifluoromethyl)-3-pyridyl]acetamide] | 0.0001 to 10
13 | CCn1cc(Nc2ncc(-c3ccc(CC(=O)Nc4cnc(OC)c(C(F)(F)F)c4)c(F)c3)cn2)cn1 [Compound P-0259, 2-[4-[2-[(1-ethylpyrazol-4-yl)amino]pyrimidin-5-yl]-2-fluoro-phenyl]-N-[6-methoxy-5-(trifluoromethyl)-3-pyridyl]acetamide] | 0.0001 to 10
14 | CCn1cc(Nc2ncc(-c3ccc(CC(=O)Nc4cnc(Cl)c(C(F)(F)F)c4)c(F)c3)cn2)cn1 [Compound P-0260, N-[6-chloro-5-(trifluoromethyl)-3-pyridyl]-2-[4-[2-[(1-ethylpyrazol-4-yl)amino]pyrimidin-5-yl]-2-fluoro-phenyl]acetamide] | 0.0001 to 10
15 | CCn1cc(Nc2ncc(-c3ccc(CC(=O)Nc4cnc(C)c(C(F)(F)F)c4)c(F)c3)cn2)cn1 [Compound P-0261, 2-[4-[2-[(1-ethylpyrazol-4-yl)amino]pyrimidin-5-yl]-2-fluoro-phenyl]-N-[6-methyl-5-(trifluoromethyl)-3-pyridyl]acetamide] | 0.0001 to 10
16 | COc1ncc(NC(=O)Cc2ccc(-c3cnc4[nH]nc(C5CC5)c4c3)cc2F)cc1C(F)(F)F [Compound P-0262, 2-[4-(3-cyclopropyl-1H-pyrazolo[3,4-b]pyridin-5-yl)-2-fluoro-phenyl]-N-[6-methoxy-5-(trifluoromethyl)-3-pyridyl]acetamide] | 0.0001 to 10
17 | COc1ncc(NC(=O)Cc2ccc(-c3cnc4[nH]nc(C5CC5)c4c3)cc2)cc1C(F)(F)F [Compound P-0263, 2-[4-(3-cyclopropyl-1H-pyrazolo[3,4-b]pyridin-5-yl)phenyl]-N-[6-methoxy-5-(trifluoromethyl)-3-pyridyl]acetamide] | 0.0001 to 10
18 | COCCn1cc(Nc2ncc(-c3ccc(CC(=O)Nc4cnc(OC)c(C(F)(F)F)c4)c(F)c3)cn2)cn1 [Compound P-0265, 2-[2-fluoro-4-[2-[[1-(2-methoxyethyl)pyrazol-4-yl]amino]pyrimidin-5-yl]phenyl]-N-[6-methoxy-5-(trifluoromethyl)-3-pyridyl]acetamide] | 0.0001 to 10
19 | COCCn1cc(Nc2ncc(-c3ccc(CC(=O)Nc4cnc(Cl)c(C(F)(F)F)c4)c(F)c3)cn2)cn1 [Compound P-0266, N-[6-chloro-5-(trifluoromethyl)-3-pyridyl]-2-[2-fluoro-4-[2-[[1-(2-methoxyethyl)pyrazol-4-yl]amino]pyrimidin-5-yl]phenyl]acetamide] | 0.0001 to 10
20 | COCCn1cc(Nc2ncc(-c3ccc(CC(=O)Nc4cncc(C(F)(F)F)c4)c(F)c3)cn2)cn1 [Compound P-0267, 2-[2-fluoro-4-[2-[[1-(2-methoxyethyl)pyrazol-4-yl]amino]pyrimidin-5-yl]phenyl]-N-[5-(trifluoromethyl)-3-pyridyl]acetamide] | 0.0001 to 10
21 | COCCn1cc(Nc2ncc(-c3ccc(CC(=O)Nc4ccc(C(F)(F)F)nc4)c(F)c3)cn2)cn1 [Compound P-0268, 2-[2-fluoro-4-[2-[[1-(2-methoxyethyl)pyrazol-4-yl]amino]pyrimidin-5-yl]phenyl]-N-[6-(trifluoromethyl)-3-pyridyl]acetamide] | 0.0001 to 10
22 | COCCn1cc(Nc2ncc(-c3ccc(CC(=O)Nc4ccc(C(F)(F)F)cn4)c(F)c3)cn2)cn1 [Compound P-0269, 2-[2-fluoro-4-[2-[[1-(2-methoxyethyl)pyrazol-4-yl]amino]pyrimidin-5-yl]phenyl]-N-[5-(trifluoromethyl)-2-pyridyl]acetamide] | 0.0001 to 10
23 | COCCn1cc(Nc2ncc(-c3ccc(CC(=O)Nc4cc(C(F)(F)F)ccn4)c(F)c3)cn2)cn1 [Compound P-0270, 2-[2-fluoro-4-[2-[[1-(2-methoxyethyl)pyrazol-4-yl]amino]pyrimidin-5-yl]phenyl]-N-[4-(trifluoromethyl)-2-pyridyl]acetamide] | 0.0001 to 10
24 | COCCn1cc(Nc2ncc(-c3ccc(CC(=O)Nc4cnc(OC)c(C(F)(F)F)c4)cc3)cn2)cn1 [Compound P-0271, 2-[4-[2-[[1-(2-methoxyethyl)pyrazol-4-yl]amino]pyrimidin-5-yl]phenyl]-N-[6-methoxy-5-(trifluoromethyl)-3-pyridyl]acetamide] | 0.0001 to 10
25 | COCCn1cc(Nc2ncc(-c3ccc(CC(=O)Nc4ccc(C(F)(F)F)nc4)cc3)cn2)cn1 [Compound P-0273, 2-[4-[2-[[1-(2-methoxyethyl)pyrazol-4-yl]amino]pyrimidin-5-yl]phenyl]-N-[6-(trifluoromethyl)-3-pyridyl]acetamide] | 0.0001 to 10
26 | COCCn1cc(Nc2ncc(-c3ccc(CC(=O)Nc4ccc(C(F)(F)F)cn4)cc3)cn2)cn1 [Compound P-0274, 2-[4-[2-[[1-(2-methoxyethyl)pyrazol-4-yl]amino]pyrimidin-5-yl]phenyl]-N-[5-(trifluoromethyl)-2-pyridyl]acetamide] | 0.0001 to 10
